{
  "source": "patent US20120107246A1",
  "about": "“METHOTREXATE-MODIFIED NANOPARTICLES AND RELATED METHODS” (WASHINGTON, UNIVERSITY OF, priority 2005, published 2012)",
  "key": {"9L cells": {"tested_on": "9L cells", "test": "leucovorin rescue of 9L cells exposed to free methotrexate", "assay_type": "cell-based, rat", "excerpt": "Methotrexate induces apoptosis in cells through inhibition of the folic acid cycle by acting on the enzyme, dihydrofolate reductase (DHFR). The substitution of a […] at position four of the pteridine ring transforms the molecule from a substrate of DHFR to a tight binder. […] Leucovorin (folinic acid) is commonly used in high dose chemotherapy to rescue the folic acid cycle in healthy cells and reduce the deleterious side effect of the therapy. Leucovorin rescues the cell cycle by being actively metabolized into reduced folates, increasing the intracellular concentration of the reduced folates within the cytoplasm. […] Previous studies used leucovorin to rescue MCF-7 and HeLa cells following exposure to free methotrexate, but no studies have been reported in using leucovorin for the 9L cell line. Thus, the first step in this study was to determine whether the 9L cells would respond to leucovorin induced rescue following the cellular exposure to free methotrexate."}, "HeLa cells": {"tested_on": "HeLa cells", "test": "cell viability (surviving fraction) by cell count", "settings": "up to 120 hours in culture, nanoparticles 0.01-0.1 mg/mL iron, soluble methotrexate 2 μg/mL", "procedure": "Human breast cancer cells (MCF-7), and human cervical cancer cells (HeLa) were obtained from the Fred Hutchinson Cancer Research Center, Seattle, Wash. Cells were grown in T-75 flasks with RPMI Media (Invitrogen) supplemented with 10% fetal calf serum, 5958 mg/mL HEPES, 300 mg/mL L-Glutamine, 50 ug/mL streptomycin and 50 IU/mL penicillin. Cells were cultured at 37° C. in a humidified atmosphere with 5% CO2 with the medium being changed every third day. The cells were transferred to RPMI-1640 folate free medium (Invitrogen) 24 hours prior to plating. The cells were then subcultured in 24-well plates at a concentration of 25,000 cells/mL in RPMI-1640 folate-free medium. […] In addition, a control media containing soluble methotrexate was prepared at a concentration of 2 μg/mL. Cells were also cultured in 1 mL medium without nanoparticles as the control. The cell culture proceeded for 24, 48, 72, 96, and 120 hours respectively at which time, the cells were washed three times with 1 mL of Hank's Balanced Salt Solution (HBSS, Invitrogen), detached with 500 μL of 0.25% trypsin-EDTA (Sigma), and resuspended in 1 mL of Phosphate Buffered Saline (PBS) supplemented with 10% FBS. Cell viability was determined by cell count via a model Z1 Beckman particle counter."}, "[1]": {"settings": "in humans; cited from earlier work"}},
  "data": [
    {"smiles": "Nc1nc2c(c(=O)[nH]1)N(C=O)C(CNc1ccc(C(=O)N[C@@H](CCC(=O)O)C(=O)O)cc1)CN2", "note": "(stereo partly shown) [leucovorin, Leucovorin (folinic acid)]", "values": [
      {"measurement": "leucovorin concentration at which cells showed continued proliferation", "setting": "9L cells; 9L cells after 2 hours exposure to methotrexate, 48 hours incubation with LV", "value": "≥ 1", "unit": "µg/mL"},
      {"measurement": "sufficient concentration of LV to ensure cell rescue", "setting": "9L cells; 9L cells after methotrexate exposure", "value": "~10", "unit": "µg/mL"}
    ]},
    {"smiles": "CN(Cc1cnc2nc(N)nc(N)c2n1)c1ccc(C(=O)N[C@@H](CCC(=O)O)C(=O)O)cc1", "note": "[methotrexate, Methotrexate]", "values": [
      {"measurement": "reduction in cell viability / cytotoxicity", "setting": "HeLa cells", "value": "slightly higher cytotoxicity"},
      {"measurement": "half-life", "setting": "[1]", "value": "2 to 3", "unit": "h"}
    ]}
  ]
}
